According to US20110105409A1, “Anticancer Compounds” (priority 2008, published 2011):
Starred links: 1 amine or outer side, 2 acyl side, 3 side chain; linkers in the order of their positions; H or OH if unused. Positions of bridges follow the written chain, without caps; N, C: chain ends. Non-standard residues stand in square brackets, D forms with d. Residues, ends and D or L forms follow the SMILES beside them. ξ: configuration not given here. *: point of attachment. γ4hArg(2R,3R-(OH)2) = N=C(N)NCCC[C@H](N[*:1])[C@@H](O)[C@@H](O)C(=O)[*:2]; Heptanoyl(3R-OH,2R,4R,6-Me3) = CC(C)C[C@@H](C)[C@@H](O)[C@@H](C)C(=O)*; Gln(3S,4R-Me2) = C[C@H]([C@H](N)C(=O)O)[C@@H](C)C(N)=O; ξThr(3R)(O-yl) = C[C@@H](O[*:3])C(N[*:1])C(=O)[*:2]; dTyr(βR-OMe) = CO[C@H](c1ccc(O)cc1)[C@@H](N)C(=O)O; X6 = C[C@H](C(N[*:1])C(=O)[*:2])[C@@H](C)C(N)=O; X7 = CO[C@H](c1ccc(O)cc1)C(N[*:1])C(=O)[*:2]; dAsn(3S-OH) = NC(=O)[C@@H](O)[C@@H](N)C(=O)O; X5 = C[C@@H]1[C@@H](C(=O)*)NC(=O)[C@@H]1C; X4 = CC(C)(O)C(N[*:1])C(O)C(O)C(=O)[*:2]; ξGln(3,4-Me2) = CC(C(N)=O)C(C)C(N)C(=O)O; Abu(3S-NH2) = C[C@H](N)[C@H](N)C(=O)O; ξAsn(3ξ-OMe) = COC(C(N)=O)C(N)C(=O)O; d(aThr) = C[C@@H](O)[C@@H](N)C(=O)O; NMeQ = CN[C@@H](CCC(N)=O)C(=O)O; X1 = CC(C)CC(C)/C=C\C(O)CC(=O)*; ξThr(3R) = C[C@@H](O)C(N)C(=O)O; X3 = CCC(C)CC(C)C(O)C(C)C(=O)*; NMeL = CN[C@@H](CC(C)C)C(=O)O; X2 = CCCC(C)/C=C\C(O)CC(=O)*; Pip = O=C(O)[C@@H]1CCCCN1; NMeA = CN[C@@H](C)C(=O)O; dDap = NC[C@@H](N)C(=O)O; ξOrn = NCCCC(N)C(=O)O

Key:
HIV-1RF = details: infection of human T-lymphoblastoid cells by HIV-1RF in vitro; cited from earlier work
[1] = system: panel of human cancer cell lines; details: mean over panel of human cancer cell lines; cited from earlier work
[2] = system: CEM-TART (CEM T-cells expressing both HIV-1 tat and rev); details: CEM-TART cell line, cytotoxic activity; cited from earlier work
[3] = system: HCT-116 (human colon tumor); details: HCT-116 cell line, cytotoxic activity; cited from earlier work
HIV-1 = details: cytoprotective activity against HIV-1 infection; cited from earlier work
MDA-MB-231 = experiment: SRB colorimetric cytotoxicity assay, MDA-MB-231; assay type: cell-based, human; details: for CC50 / GI50: Homo sapiens; for CC50: MDA-MB-231, 72 h, read-out: LC50; for GI50 / TGI: MDA-MB-231, 72 hours treatment, SRB
Source text: (§1) The aim of this assay is to evaluate the in vitro cytostatic (ability to delay or arrest tumor cell growth) or cytotoxic (ability to kill tumor cells) activity of the samples being tested.
(§2) A colorimetric assay, using sulforhodamine B (SRB) reaction has been adapted to provide a quantitative measurement of cell growth and viability (following the technique described by Skehan et al. J. Natl. Cancer Inst. 1990, 82, 1107-1112).
(§3) This form of assay employs SBS-standard 96-well cell culture microplates (Faircloth et al. Methods in Cell Science, 1988, 11(4), 201-205; Mosmann et al, Journal of Immunological Methods, 1983, 65(1-2), 55-63). All the cell lines used in this study were obtained from the American Type Culture Collection (ATCC) and derive from different types of human cancer.
(§4) Cells were maintained in Dulbecco's Modified Eagle Medium (DMEM) supplemented with 10% Fetal Bovine Serum (FBS), 2 mM L-glutamine, 100 U/mL penicillin and 100 U/mL streptomycin at 37° C., 5% CO2 and 98% humidity. For the experiments, cells were harvested from subconfluent cultures using trypsinization and resuspended in fresh medium before counting and plating.
(§5) Cells were seeded in 96 well microtiter plates, at 5×10^3-7.5×10^3 cells per well in aliquots of 150 μL, and allowed to attach to the plate surface for 18 hours (overnight) in drug free medium. After that, one control (untreated) plate of each cell line was fixed (as described below) and used for time zero reference value. Culture plates were then treated with test compounds (50 μL aliquots of 4× stock solutions in complete culture medium plus 4% DMSO) using ten serial dilutions (concentrations ranging from 10 to 0.00262 μg/mL) and triplicate cultures (1% final concentration of DMSO). After 72 hours treatment, the antitumor effect was measured by using the SRB methodology: Briefly, cells were washed twice with PBS, fixed for 15 min in 1% glutaraldehyde solution at room temperature, rinsed twice in PBS, and stained in 0.4% SRB solution for 30 min at room temperature. Cells were then rinsed several times with 1% acetic acid solution and air-dried at room temperature. SRB was then extracted in 10 mM trizma base solution and the absorbance measured in an automated spectrophotometric plate reader at 490 nm. Effects on cell growth and survival were estimated by applying the NCI algorithm (Boyd M R and Paull K D. Drug Dev. Res. 1995, 34, 91-104).
(§6) Using the mean±SD of triplicate cultures, a dose-response curve was automatically generated using nonlinear regression analysis. Three reference parameters were calculated (NCI algorithm) by automatic interpolation: GI50=compound concentration that produces 50% cell growth inhibition, as compared to control cultures; TGI=compound concentration that produces total cell growth inhibition (cytostatic effect), as compared to control cultures, and LC50=compound concentration that produces 50% net cell killing (cytotoxic effect).

HT29 = experiment: SRB colorimetric cytotoxicity assay, HT29; assay type: cell-based, human; details: for TGI / GI50: HT29, 72 hours treatment, SRB; for CC50 / GI50: Homo sapiens; for CC50: HT-29, 72 h, read-out: LC50; for GI50: HT-29
Source text: as §1, §2, §3, §4, §5, §6

A549 = experiment: SRB colorimetric cytotoxicity assay, A549; assay type: cell-based, human; details: for TGI / GI50: A549, 72 hours treatment, SRB; for CC50 / GI50: Homo sapiens; for CC50: A549, 72 h, read-out: LC50
Source text: as §1, §2, §3, §4, §5, §6

HIV-1 (Lai strain) = details: CEM4 cells; cited from earlier work
Candida albicans = details: 100 μg/disc (6 mm); cited from earlier work
guinea pig atria = details: cited from earlier work
[4] = system: CEM4 lymphocytic cell lines; details: CEM4 lymphocytic cell lines infected with HIV-1 (Lai strain); cited from earlier work
Na^+/Ca^2+ exchanger = details: cited from earlier work
[5] = system: NSCLC-N6, E39, P388, and M96 tumor cells; details: range over NSCLC-N6, E39, P388 and M96 tumor cells; cited from earlier work

In the case of papuamide A, the EC50 (HIV-1RF) is given as “approximately 4 ng/mL” and the “mean IC50” value [1] is given as 75 ng/mL.
In the case of CCC(C)CC(C)C(O)C(C)C(=O)N[C@H](CN)C(=O)NC(C(O)C(O)C(=O)NC(C(=O)N[C@H]1C(=O)N[C@H]([C@@H](C)O)C(=O)NC(CCCN)C(=O)N[C@@H](CC(C)C)C(=O)N(C)[C@@H](CCC(N)=O)C(=O)NC(C(OC)C(N)=O)C(=O)N[C@H](CC(N)=O)C(=O)N(C)[C@@H](CC(C)C)C(=O)O[C@@H]1C)C(C)C(C)C(N)=O)C(C)(C)O (stereo partly drawn) [theopapuamide] (X3-[dDap][X4][ξGln(3,4-Me2)][d(aThr)][d(aThr)][ξOrn]L[NMeQ][ξAsn(3ξ-OMe)][dN][NMeL]; ester 4-C), the EC50 [2] is given as 500 nM and the EC50 [3] is given as 900 nM.
For CO[C@H](c1ccc(O)cc1)C1NC(=O)[C@H](CCC(N)=O)N(C)C(=O)[C@H](CC(C)C)NC(=O)[C@@H](CCCNC(=N)N)NC(=O)C([C@@H](C)O)NC(=O)C(NC(=O)C(NC(=O)[C@H](O)[C@H](O)[C@H](CCCNC(=N)N)NC(=O)[C@H](CC(N)=O)NC(=O)[C@H](C)[C@H](O)[C@H](C)CC(C)C)[C@@H](C)[C@@H](C)C(N)=O)[C@@H](C)OC(=O)[C@@H]2CCCCN2C(=O)[C@@H](CC(N)=O)NC1=O (stereo partly drawn) [neamphamide A] ({Heptanoyl(3R-OH,2R,4R,6-Me3)}-N[γ4hArg(2R,3R-(OH)2)][X6][ξThr(3R)(O-yl)][ξThr(3R)][dR]L[NMeQ][X7][dN][Pip]; ester 4-C), the EC50 (HIV-1) is listed as roughly 28 nM.
Compound COC[C@H]1NC(=O)[C@H](NC(=O)C(NC(=O)[C@@H](NC(=O)[C@H](NC(=O)[C@H](NC(=O)CC(O)/C=C\C(C)CC(C)C)[C@H](O)C(N)=O)[C@@H](C)O)[C@H](C)N)C(C)C(C)C(N)=O)[C@@H](C)OC(=O)[C@H](C)N(C)C(=O)[C@@H]([C@H](OC)c2ccc(O)cc2)NC(=O)[C@H](CCC(N)=O)N(C)C(=O)[C@H](CC(C)C)NC(=O)CNC1=O (stereo partly drawn) [Stellatolide A] (X1-[dAsn(3S-OH)][d(aThr)][Abu(3S-NH2)][ξGln(3,4-Me2)][d(aThr)][dS](Me)GL[NMeQ][dTyr(βR-OMe)][NMeA]; ester 5-C) has a CC50 (MDA-MB-231) of 761 nM, a GI50 (MDA-MB-231) of 330 nM and a TGI (MDA-MB-231) of 4.95E−07 Molar. For the same compound, the TGI (HT29) was 8.88E−07 Molar, the CC50 (HT29) was 1330 nM and the GI50 (HT29) was 603 nM. The TGI (A549) was 1.97E−07 Molar, the CC50 (A549) was 406 nM and the GI50 (A549) was 101 nM.
Work on CCCC(C)/C=C\C(O)CC(=O)N[C@@H](C(=O)N[C@@H](C(=O)N[C@H](C(=O)NC(C(=O)N[C@H]1C(=O)N[C@H](COC)C(=O)NCC(=O)N[C@@H](CC(C)C)C(=O)N(C)[C@@H](CCC(N)=O)C(=O)N[C@H]([C@H](OC)c2ccc(O)cc2)C(=O)N(C)[C@@H](C)C(=O)O[C@@H]1C)C(C)C(C)C(N)=O)[C@H](C)N)[C@@H](C)O)[C@H](O)C(N)=O (stereo partly drawn) [Stellatolide B] (X2-[dAsn(3S-OH)][d(aThr)][Abu(3S-NH2)][ξGln(3,4-Me2)][d(aThr)][dS](Me)GL[NMeQ][dTyr(βR-OMe)][NMeA]; ester 5-C) yielded a CC50 (MDA-MB-231) of 1730 nM, a GI50 (MDA-MB-231) of 704 nM and a TGI (MDA-MB-231) of 1.09E−06 Molar. For the same compound, the TGI (HT29) was 1.60E−06 Molar, the CC50 (HT29) was 2370 nM and the GI50 (HT29) was 1150 nM. For the same compound, the TGI (A549) was 1.09E−06 Molar, the CC50 (A549) was 1920 nM and the GI50 (A549) was 640 nM.
For CO[C@H](c1ccc(O)cc1)[C@H]1NC(=O)[C@H](CCC(N)=O)N(C)C(=O)[C@H](CC(C)C)NC(=O)[C@@H](CCCN=C(N)N)NC(=O)[C@H]([C@@H](C)O)NC(=O)[C@@H](NC(=O)[C@@H](NC(=O)[C@H](O)[C@H](O)[C@H](CCCN=C(N)N)NC(=O)[C@@H](C)NC(=O)[C@H](C)[C@H](O)[C@H](C)CC(C)C)[C@@H](C)[C@@H](C)C(N)=O)[C@@H](C)OC(=O)[C@H](C)N(C)C1=O [callipeltin A] ({Heptanoyl(3R-OH,2R,4R,6-Me3)}-[dA][γ4hArg(2R,3R-(OH)2)][Gln(3S,4R-Me2)]TT[dR]L[NMeQ][dTyr(βR-OMe)][NMeA]; ester 4-C), the “selectivity index (SI ratio CD50/ED50)” value (HIV-1 (Lai strain)) is listed as 29, the “inhibition of growth (zone)” value (Candida albicans) is listed as 30 mm and the inotropic effect (guinea pig atria) is listed as “positive inotropic agent”. For the same compound, the CD50 [4] was 0.29 µg/mL and the “inhibition of the Na+/Ca2+ exchanger” value (Na^+/Ca^2+ exchanger) was “selective and powerful inhibitor”.
For papuamide B, the EC50 (HIV-1RF) is listed as “approximately 4 ng/mL”.
For CO[C@H](c1ccc(O)cc1)[C@H]1NC(=O)[C@H](CCC(N)=O)N(C)C(=O)[C@H](CC(C)C)NC(=O)[C@@H](CCCNC(=N)N)NC(=O)[C@@H]([C@@H](C)O)NC(=O)[C@H](NC(=O)[C@H]2NC(=O)[C@H](C)[C@@H]2C)[C@@H](C)OC(=O)[C@H](C)N(C)C1=O [callipeltin B] (X5-[d(aThr)][d(aThr)][dR]L[NMeQ][dTyr(βR-OMe)][NMeA]; ester 1-C), the IC50 [5] is listed as 1.3 to >30 μg/mL.
